In patent US9149476B2, “Thiochromene derivatives as HIF hydroxylase inhibitors” (FibroGen, Inc., priority 2008, dated 2015):
Structures can show the parent of a compound that is named as a salt.

What follows are compounds tested against T1, HIF-PH2 (EGLN1) (Homo sapiens, UniProt Q9GZT9) (assay: HIF-PH assay (14CO2 capture, peptide-dependent turnover)). Conditions: compound concentration 7.4 μM.
T1 construct: made in house; host or cells: insect Hi5 cells
Format: biochemical
Source text: Ketoglutaric acid α-[1-^14C]-sodium salt, alpha-ketoglutaric acid sodium salt, and HPLC purified peptide may be obtained from commercial sources, e.g., Perkin-Elmer (Wellesley Mass.), Sigma-Aldrich, and SynPep Corp. (Dublin Calif.), respectively. Peptides for use in the assay may be fragments of HIFα as described above or as disclosed in International Publication WO 2005/118836, incorporated by reference herein. For example, a HIF peptide for use in the HIF-PH assay is [methoxycoumarin]-DLDLEALAPYIPADDDFQL-amide (SEQ ID NO:2). HIF-PH, e.g., HIF-PH2 (EGLN1), can be expressed in, e.g., insect Hi5 cells, and partially purified, e.g., through a SP ion exchange chromatography column. Enzyme activity is determined by capturing ^14CO2 using an assay described by Kivirikko and Myllyla (1982, Methods Enzymol. 82:245-304). Assay reactions contain 50 mM HEPES (pH 7.4), 100 μM α-ketoglutaric acid sodium salt, 0.30 μCi/mL ketoglutaric acid α-[1-^14C]-sodium salt, 40 μM FeSO4, 1 mM ascorbate, 1541.8 units/mL Catalase, with or without 50 μM peptide substrate and various concentrations of compound of the invention. Reactions are initiated by addition of HIF-PH enzyme.
The peptide-dependent percent turnover is calculated by subtracting percent turnover in the absence of peptide from percent turnover in the presence of substrate peptide. Percent inhibition and IC50 are calculated using peptide-dependent percent turnover at given inhibitor concentrations. Calculation of IC50 values for each inhibitor is conducted using GraFit software (Erithacus Software Ltd., Surrey UK).
Representative compounds of the invention were analyzed using the HIF-PH assay described above. Table 1 presents enzyme inhibition data for exemplary compounds against HIF-PH2, a representative HIF prolyl hydroxylase. By inhibiting HIF prolyl hydroxylase, compounds of the invention stabilize HIFα, which then combines with HIFβ to form an active transcription factor that increases expression of various genes involved in numerous beneficial cellular processes.

T1 sequence (Q9GZT9 whole entry): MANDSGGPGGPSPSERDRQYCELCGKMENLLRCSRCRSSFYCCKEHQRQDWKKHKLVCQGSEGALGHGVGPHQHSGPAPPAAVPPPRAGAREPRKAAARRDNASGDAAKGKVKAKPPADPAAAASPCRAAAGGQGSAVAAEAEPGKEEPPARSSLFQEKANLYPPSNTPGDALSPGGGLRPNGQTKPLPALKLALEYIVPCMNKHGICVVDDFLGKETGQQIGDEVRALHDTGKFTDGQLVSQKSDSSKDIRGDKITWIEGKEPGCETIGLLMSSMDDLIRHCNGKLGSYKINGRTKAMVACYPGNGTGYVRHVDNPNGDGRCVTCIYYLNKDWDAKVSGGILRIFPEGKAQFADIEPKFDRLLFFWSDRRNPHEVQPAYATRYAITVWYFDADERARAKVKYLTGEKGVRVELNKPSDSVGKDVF

With O=C(O)CNC(=O)c1c(O)c2cc(Cl)cc(C#Cc3ccccc3)c2sc1=O [Example 56, [(6-Chloro-4-hydroxy-2-oxo-8-phenylethynyl-2H-thiochromene-3-carbonyl)-amino]-acetic acid] the inhibition at 7.4 µM was 99.7%.

Same assay, conditions: compound concentration 12.5 μM

Going from Cc1ccc2c(O)c(C(=O)NCC(=O)O)c(=O)sc2c1 [Example 6, [(4-Hydroxy-7-methyl-2-oxo-2H-thiochromene-3-carbonyl)-amino]-acetic acid] to O=C(O)CNC(=O)c1c(O)c2ccc(F)cc2sc1=O [Example 21, [(7-Fluoro-4-hydroxy-2-oxo-2H-thiochromene-3-carbonyl)-amino]-acetic acid], the inhibition at 12.5 µM falls from 94.5% to 91.1%.

COc1ccc(-c2ccc3c(O)c(C(=O)NCC(=O)O)c(=O)sc3c2)cc1 [Example 7, {[4-Hydroxy-7-(4-methoxy-phenyl)-2-oxo-2H-thiochromene-3-carbonyl]-amino}-acetic acid] showed an inhibition at 12.5 µM of 98.7%.

Same assay, conditions: compound concentration 50 μM

Going from Cc1cccc2c(O)c(C(=O)NCC(=O)O)c(=O)sc12 [Example 23, [(4-Hydroxy-8-methyl-2-oxo-2H-thiochromene-3-carbonyl)-amino]-acetic acid] to Cc1cc(Cl)cc2c(O)c(C(=O)NCC(=O)O)c(=O)sc12 [Example 22, [(6-Chloro-4-hydroxy-8-methyl-2-oxo-2H-thiochromene-3-carbonyl)-amino]-acetic acid], the inhibition at 50 µM falls from 97.5% to 95.6%.

O=C(O)CNC(=O)c1c(O)c2cc(Cl)cc(-c3ccccc3)c2sc1=O [Example 44, [(6-Chloro-4-hydroxy-2-oxo-8-phenyl-2H-thiochromene-3-carbonyl)-amino]-acetic acid] and O=C(O)CNC(=O)c1c(O)c2cc(Cl)cc(-c3cccnc3)c2sc1=O [Example 46, [(6-Chloro-4-hydroxy-2-oxo-8-pyridin-3-yl-2H-thiochromene-3-carbonyl)-amino]-acetic acid] are the same in inhibition at 50 µM: 100% for the first, 100% for the second.

Compared with COc1ccc2c(O)c(C(=O)NCC(=O)O)c(=O)sc2c1 [Example 1, [(4-Hydroxy-7-methoxy-2-oxo-2H-thiochromene-3-carbonyl)-amino]-acetic acid], O=C(O)CNC(=O)c1c(O)c2ccc(C3CC3)cc2sc1=O [Example 53, [(7-Cyclopropyl-4-hydroxy-2-oxo-2H-thiochromene-3-carbonyl)-amino]-acetic acid] is higher in inhibition at 50 µM: 97.3% for the first, 99% for the second.

Cn1nc(C(F)(F)F)cc1-c1cccc2c(O)c(C(=O)NCC(=O)O)c(=O)sc12 [Example 49, {[4-Hydroxy-8-(2-methyl-5-trifluoromethyl-2H-pyrazol-3-yl)-2-oxo-2H-thiochromene-3-carbonyl]-amino}-acetic acid] and Cn1nc(C(F)(F)F)cc1-c1cc(Cl)cc2c(O)c(C(=O)NCC(=O)O)c(=O)sc12 [Example 45, {[6-Chloro-4-hydroxy-8-(2-methyl-5-trifluoromethyl-2H-pyrazol-3-yl)-2-oxo-2H-thiochromene-3-carbonyl]-amino}-acetic acid] are the same in inhibition at 50 µM: 100% for the first, 100% for the second.

Compared with O=C(O)CNC(=O)c1c(O)c2ccc(-c3ccc4ccccc4c3)cc2sc1=O [Example 18, [(4-Hydroxy-7-naphthalen-2-yl-2-oxo-2H-thiochromene-3-carbonyl)-amino]-acetic acid], Cc1ccc(-c2ccc3c(O)c(C(=O)NCC(=O)O)c(=O)sc3c2)cc1 [Example 19, [(4-Hydroxy-2-oxo-7-p-tolyl-2H-thiochromene-3-carbonyl)-amino]-acetic acid] is higher in inhibition at 50 µM: 87.9% for the first, 92.1% for the second.

Going from Cn1nc(C(F)(F)F)cc1-c1ccc2c(O)c(C(=O)NCC(=O)O)c(=O)sc2c1 [Example 54, {[4-Hydroxy-7-(2-methyl-5-trifluoromethyl-2H-pyrazol-3-yl)-2-oxo-2H-thiochromene-3-carbonyl]-amino}-acetic acid] to C[C@H](NC(=O)c1c(O)c2ccc(-c3cc(C(F)(F)F)nn3C)cc2sc1=O)C(=O)O [Example 55, 2-(S)-{[4-Hydroxy-7-(2-methyl-5-trifluoromethyl-2H-pyrazol-3-yl)-2-oxo-2H-thiochromene-3-carbonyl]-amino}-propionic acid], the inhibition at 50 µM falls from 98.6% to 94.5%.

Compared with O=C(O)CNC(=O)c1c(O)c2ccc(-c3cncc(F)c3)cc2sc1=O [Example 16, {[7-(5-Fluoro-pyridin-3-yl)-4-hydroxy-2-oxo-2H-thiochromene-3-carbonyl]-amino}-acetic acid], O=C(O)CNC(=O)c1c(O)c2ccc(-c3cccnc3)cc2sc1=O [Example 15, [(4-Hydroxy-2-oxo-7-pyridin-3-yl-2H-thiochromene-3-carbonyl)-amino]-acetic acid, sodium salt] is lower in inhibition at 50 µM: 95.4% for the first, 95.2% for the second.

First: C[C@H](NC(=O)c1c(O)c2cc(Cl)ccc2sc1=O)C(=O)O [Example 59, 2-(S)-[(6-Chloro-4-hydroxy-2-oxo-2H-thiochromene-3-carbonyl)-amino]-propionic acid]
Second: O=C(O)CNC(=O)c1c(O)c2ccc(-c3cc(Cl)cc(Cl)c3)cc2sc1=O [Example 10, {[7-(3,5-Dichloro-phenyl)-4-hydroxy-2-oxo-2H-thiochromene-3-carbonyl]-amino}-acetic acid]
The inhibition at 50 µM of the first is lower: 95.6% for the first, 96.7% for the second.

O=C(O)CNC(=O)c1c(O)c2cc(Cl)cc(Cc3ccccc3)c2sc1=O [Example 42, [(8-Benzyl-6-chloro-4-hydroxy-2-oxo-2H-thiochromene-3-carbonyl)-amino]-acetic acid] and O=C(O)CNC(=O)c1c(O)c2cccc(Cc3ccccc3)c2sc1=O [Example 47, [(8-Benzyl-4-hydroxy-2-oxo-2H-thiochromene-3-carbonyl)-amino]-acetic acid] are the same in inhibition at 50 µM: 100% for the first, 100% for the second.

Going from O=C(O)CNC(=O)c1c(O)c2cccc(-c3cc(C(F)(F)F)cc(C(F)(F)F)c3)c2sc1=O [Example 48, {[8-(3,5-Bis-trifluoromethyl-phenyl)-4-hydroxy-2-oxo-2H-thiochromene-3-carbonyl]-amino}-acetic acid] to O=C(O)CNC(=O)c1c(O)c2cccc(-c3cccnc3)c2sc1=O [Example 50, [(4-Hydroxy-2-oxo-8-pyridin-3-yl-2H-thiochromene-3-carbonyl)-amino]-acetic acid], the inhibition at 50 µM falls from 100% to 98.8%.

Going from O=C(O)CNC(=O)c1c(O)c2cc(OCc3ccccc3)ccc2sc1=O [Example 62, [(6-Benzyloxy-4-hydroxy-2-oxo-2H-thiochromene-3-carbonyl)-amino]-acetic acid] to O=C(O)CNC(=O)c1c(O)c2cc(-c3ccc(OC(F)(F)F)cc3)ccc2sc1=O [Example 40, {[4-Hydroxy-2-oxo-6-(4-trifluoromethoxy-phenyl)-2H-thiochromene-3-carbonyl]-amino}-acetic acid], the inhibition at 50 µM falls from 100% to 94.8%.

Same assay, conditions: compound concentration 67 μM

First: O=C(O)CNC(=O)c1c(O)c2ccc(-c3cccc(F)c3)cc2sc1=O [Example 30, {[7-(3-Fluoro-phenyl)-4-hydroxy-2-oxo-2H-thiochromene-3-carbonyl]-amino}-acetic acid]
Second: O=C(O)CNC(=O)c1c(O)c2cc(-c3cccc(F)c3)ccc2sc1=O [Example 37, {[6-(3-Fluoro-phenyl)-4-hydroxy-2-oxo-2H-thiochromene-3-carbonyl]-amino}-acetic acid]
The inhibition at 67 µM of the first is higher: 99.1% for the first, 98.4% for the second.

Going from O=C(O)CNC(=O)c1c(O)c2cc(-c3cc(C(F)(F)F)cc(C(F)(F)F)c3)ccc2sc1=O [Example 33, {[6-(3,5-Bis-trifluoromethyl-phenyl)-4-hydroxy-2-oxo-2H-thiochromene-3-carbonyl]-amino}-acetic acid] to COc1ccc(-c2ccc3sc(=O)c(C(=O)NCC(=O)O)c(O)c3c2)cc1 [Example 35, {[4-Hydroxy-6-(4-methoxy-phenyl)-2-oxo-2H-thiochromene-3-carbonyl]-amino}-acetic acid], the inhibition at 67 µM falls from 99.4% to 99.1%.

Going from C[C@H](NC(=O)c1c(O)c2ccc(-c3cccc(F)c3)cc2sc1=O)C(=O)O [Example 31, 2-(S)-{[7-(3-Fluoro-phenyl)-4-hydroxy-2-oxo-2H-thiochromene-3-carbonyl]-amino}-propionic acid] to O=C(O)CNC(=O)c1c(O)c2cc(Br)ccc2sc1=O [Example 27, [(6-Bromo-4-hydroxy-2-oxo-2H-thiochromene-3-carbonyl)-amino]-acetic acid], the inhibition at 67 µM rises from 98.4% to 100%.

Same assay, conditions: compound concentration 200 μM

Going from O=C(O)CNC(=O)c1c(O)c2cc(F)ccc2sc1=O [Example 4, [(6-Fluoro-4-hydroxy-2-oxo-2H-thiochromene-3-carbonyl)-amino]-acetic acid] to O=C(O)CNC(=O)c1c(O)c2ccccc2sc1=O [Example 3, [(4-Hydroxy-2-oxo-2H-thiochromene-3-carbonyl)-amino]-acetic acid], the inhibition at 200 µM falls from 100% to 99.2%.

With COc1cc2sc(=O)c(C(=O)NCC(=O)O)c(O)c2cc1OC [Example 2, [(4-Hydroxy-6,7-dimethoxy-2-oxo-2H-thiochromene-3-carbonyl)-amino]-acetic acid] the inhibition at 200 µM was 99.4%.
